Results taken from patent US8835644B2, “Broad spectrum benzothiophene-nitrothiazolide and other antimicrobials” (University of Virginia Patent Foundation, priority 2009, dated 2014).
≈ marks a conversion by molar mass, not a printed value. Where “and” joins values, the source holds several entries; their conditions need not be identical. Identical values can stand only once. Like-named read-outs stand apart in the source and are kept apart here.

Tests used:
S. epidermidis biofilm = S. epidermidis biofilm assay (activity tables); type: cell-based, Staphylococcus epidermidis
How it was run: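 Overnight TSB cultures diluted to OD600 0.01 and grown static with compound (triplicate) at 37° C for 16 h; turbidity recorded for growth. Biofilm: washed wells ethanol-fixed, stained with 0.5% crystal violet, A570 read before and after 95% ethanol extraction; mean ± SD.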

C. difficile = assay: Disk diffusion (Kirby Bower), C. difficile; type: cell-based, Clostridium difficile; settings: for Disk Diff (%) C. difficile: Nitazoxanide = 100
How it was run: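 Values are broth-dilution MICs, defined as the well showing no growth on visual reading after 24 h; the tested range was 32 to 0.06 μg/ml, in organism-specific media (LB, Trypticase Soy, Brain Heart Infusion). The C. difficile entries come instead from anaerobic Kirby-Bauer disk zones, normalised to NTZ.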

[1] = system: S. epidermidis strain 9142; assay: Biofilm determination, crystal violet, S. epidermidis; type: cell-based, Staphylococcus epidermidis
Description: Staphylococcal strains were cultured overnight in TSB at 37° C. with shaking, diluted in fresh medium to an OD600 of 0.01 and 200 W was dispensed into sterile flat bottom polystyrene 96 well microtiter plates (Costar 3596, Corning Inc.). […] Each compound and dilution was tested in triplicate. The plates were incubated overnight at 37° C. in a humidified incubator, without shaking and both growth and biofilm accumulation were determined at 16 h.
Following recording of turbidities, the culture medium was aspirated and the wells were washed three times with distilled water, blotted on paper towels, and fixed with 75% ethanol for 10 minutes.
To visualize biofilm material, 0.5% crystal violet was added to each well and after 5 minutes was removed and the wells washed three times with distilled water. Plates were read using a microplate reader at a wavelength of 570 nm. The dye was then extracted by adding 200 W of 95% ethanol, and the absorbance was read again at 570 nm. All assays were performed in triplicate and the mean and standard deviation determined. Generally, the ethanol-solubilized crystal violet was more reliable and these determinations are reported throughout.

[2] = Zn2+ chelation, spectrophotometric and 1H NMR; type: physicochemical; settings: 1H NMR in DMSO-d6, ratios 1:1, 1:2, 2:1, up to 72 h
Description: To test direct binding of Zn^2+ by NTZ in solution, we tested a range of concentrations of both NTZ and TIZ and scanned the solutions spectrophotometrically using an OLIS Cary-14 (OLIS Instruments Co., Bogart Ga.). Absolute spectra were recorded over a UV/Vis range from 220 nm to 700 nm. Spectral shifts in the 418 nm range would be attributable to changes in resonance within the thiazole ring that would result if Zn^2+ were coordinated by NTZ (9).
Chelation experiments were also performed utilizing NTZ and TIZ in DMSO-d6 (0.5 mL) with ZnCl2 using a 300 MHz Varian MercuryPlus spectrometer. Specifically, three ratios of NTZ to Zn^2+ were investigated (1:1, 1:2, 2:1) where NTZ was held constant (4 mg, 13 μmoles) while varying ZnCl2 (1.8 mg, 13 μmoles or 3.5 mg, 26 μmoles) or NTZ (8 mg, 26 μmoles) with ZnCl2 (1.8 mg, 13 μmoles). Three ratios of TIZ to Zn^2+ were also investigated (1:1, 1:2, 2:1) where TIZ was held constant (4 mg, 15 μmoles) while varying ZnCl2 (2.1 mg, 15 μmoles or 4.1 mg, 30 μmoles) or TIZ (8 mg, 30 μmoles) with ZnCl2 (2.1 mg, 15 μmoles). ^1H NMR spectra were then obtained after mixing for 5 min, 24 h, 48 h, and 72 h at room temperature. Any chelation event would be evidenced by shifting or broadening of the thiazole and benzene protons as well as loss of the amide proton.

[3] = system: EAEC strains 042 and 17-2; assay: Growth and MIC of E. coli / EAEC strains in LB and MinA-G medium; type: cell-based; settings: Escherichia coli; for MIC: static
Description: EAEC strains were grown overnight in MinA-G medium at 37° C. with shaking and used to inoculate fresh MinA-G medium containing a range of NTZ concentrations (0, 5, 10, 15, 20, and 25 μg/ml) to a starting OD600 of 0.1. Growth was recorded as the absorbance at 600 nm at 30-minute intervals over a period of eight hours. […] Motility was assessed in LB soft agar (0.3% agar) containing 0 to 25 μg/ml of NTZ. The diameter of outward spreading was measured daily and inhibition computed as percent of control.

[4] = system: EAEC strains 042 and 17-2; settings: previous studies (38), cited from earlier work
[5] = 2-amino-3,5-dinitrothiophene analogues table

SMILES: CC(=O)Oc1ccccc1C(=O)Nc1ncc([N+](=O)[O-])s1 [Nitazoxanide, 2-(acetyloxy)-N-(5-nitro-2-thiazolyl)benzamide, reference compound]
- MIC (μM) S. epidermidis Biofilm (S. epidermidis biofilm): 32.5 µM (≈ 9.99 µg/mL)
- MIC S. epidermidis Biofilm (S. epidermidis biofilm; [5]): 32.5 µM (≈ 9.99 µg/mL)
- MIC S. epidermidis Biofilm (S. epidermidis biofilm; Furan analogues table): 32.5 µM (≈ 9.99 µg/mL)
- MIC S. epidermidis Biofilm (S. epidermidis biofilm; Thiophene analogues table): 32.5 µM (≈ 9.99 µg/mL)
- Disk Diff (%) C. difficile (C. difficile; [5]): 100%
- Disk Diff (%) C. difficile (C. difficile; Furan analogues table): 100%
- Disk Diff (%) C. difficile (C. difficile; Thiophene analogues table): 100%
- Disk Diffusion (%) C. difficile (C. difficile; zone of inhibited growth as relative ratio to the zone for NTZ): 100%
- IC50 biofilm production ([1]; S. epidermidis strain 9142, crystal violet, listed as NTZ): 4 µg/mL (≈ 13 µM)
- IC50 ([1]; Staphylococcus epidermidis, 9142, S. epidermidis strain 9142, crystal violet, read-out: IC50 biofilm production): 2.5 µg/mL and ~8 µM
- IC50 ([1]; Staphylococcus epidermidis, 9142, clinical S. epidermidis isolates and strain 5179-R1, read-out: IC50 biofilm formation, all strains tested): 2.5 to 5 µg/mL (≈ 8.14 to 16.3 µM)
- Biofilm accumulation on the bottom of flasks ([1]; static (microaerobic) growth, 15 μg/ml): completely ablated
- Chelation with ZnCl2 [2]: No chelation
- IC50 ([3]; 042AND172, read-out: Concentration for 50% inhibition of aerobic growth, EAEC 17-2, MinA-G, estimated): 20 to 25 µg/mL
- IC50 ([3]; 042AND172, read-out: Concentration for 50% inhibition of aerobic growth, EAEC 042, MinA-G, estimated): 15 to 20 µg/mL
- MIC ([3]; 042AND172, E. coli strains, rich LB medium, read-out: MIC in LB medium): > 64 µg/mL
- MIC50 ([3]; 042AND172, EAEC strains, static conditions): ~20 µg/mL
- MIC ([3]; 042AND172, minimal medium with glucose, read-out: MIC in MinA-G medium): ~32 µg/mL
- Concentrations inhibitory for growth on MinA base medium ([4]; E. coli papillation assay): higher than 15 μg/ml
- MIC in LB medium, previous studies [4]: > 64 µg/mL
